Measurements from PubChem BioAssay AID248 (DTP/NCI, 2004).
Where “and” joins values, the source holds several entries; their conditions need not be identical. Identical values can stand only once. Toxic doses and inconclusive results are not listed. No stated cut-off is given here; in the data, active means T/C of 150% or more; inactive means T/C below 125%.

System: L1210 leukemia ip in BDF1 mice, survival T/C
Test: NCI In Vivo Anticancer Drug Screen. Data for tumor model L1210 Leukemia (intraperitoneal) in B6D2F1 (BDF1) mice
Settings: endpoint: mean survival time, higher = longer survival
Summary of the method: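 Antitumor effect is assessed in tumor-bearing animals. Survival in the compound arm is compared with a vehicle-dosed control arm and expressed as their quotient.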

[1] = dose: 100.0 mg/kg/injection, schedule: Q01DX009 (ip), vehicle: saline with Tween-80
[2] = dose: 100.0 mg/kg/injection, schedule: Q04DX003 (ip), vehicle: saline
[3] = dose: 200.0 mg/kg/injection, schedule: Q01DX009 (ip), vehicle: saline with Tween-80
[4] = dose: 200.0 mg/kg/injection, schedule: Q04DX003 (ip), vehicle: saline
[5] = dose: 100.0 mg/kg/injection, schedule: Q04DX003 (ip), vehicle: saline with Tween-80
[6] = dose: 200.0 mg/kg/injection, schedule: Q04DX003 (ip), vehicle: saline with Tween-80
[7] = dose: 400.0 mg/kg/injection, schedule: Q04DX003 (ip), vehicle: saline with Tween-80
[8] = dose: 100.0 mg/kg/injection, schedule: Q04DX003 (ip), vehicle: Klucel (hydroxypropylcellulose) (HPC)
[9] = dose: 200.0 mg/kg/injection, schedule: Q04DX003 (ip), vehicle: Klucel (hydroxypropylcellulose) (HPC)
[10] = dose: 400.0 mg/kg/injection, schedule: Q04DX003 (ip), vehicle: Klucel (hydroxypropylcellulose) (HPC)
[11] = dose: 50.0 mg/kg/injection, schedule: Q01DX009 (ip), vehicle: saline
[12] = dose: 100.0 mg/kg/injection, schedule: Q01DX009 (ip), vehicle: Klucel (hydroxypropylcellulose) (HPC)
[13] = dose: 100.0 mg/kg/injection, schedule: Q01DX009 (ip), vehicle: saline
[14] = dose: 222.0 mg/kg/injection, schedule: Q01DX Z (ip), vehicle: saline
[15] = dose: 333.0 mg/kg/injection, schedule: Q01DX Z (ip), vehicle: saline
[16] = dose: 500.0 mg/kg/injection, schedule: Q01DX Z (ip), vehicle: saline
[17] = dose: 25.0 mg/kg/injection, schedule: Q01DX009 (ip), vehicle: saline
[18] = dose: 50.0 mg/kg/injection, schedule: Q01DX009 (ip), vehicle: saline with Tween-80
[19] = dose: 400.0 mg/kg/injection, schedule: Q01DX009 (ip), vehicle: saline with Tween-80
[20] = dose: 100.0 mg/kg/injection, schedule: Q04DX003 (ip), vehicle: saline sonified
[21] = dose: 200.0 mg/kg/injection, schedule: Q04DX003 (ip), vehicle: saline sonified
[22] = dose: 400.0 mg/kg/injection, schedule: Q04DX003 (ip), vehicle: saline sonified

Measured: T/C

CC1=CC(=O)C(C(O)(C(F)(F)Cl)C(F)(F)Cl)C(C)(C)C1 (configuration not stated) (tested in a mixture with another compound)
inactive: [1] 98 % of control | [2] 93 % of control | [3] 102 % of control | [4] 98 % of control | dose: 400.0 mg/kg/injection, schedule: Q04DX003 (ip), vehicle: saline 104 % of control

CCCCCCCCCCNCCCCNCCCCCCCCCC
inactive: dose: 1.56 mg/kg/injection, schedule: Q01DX009 (ip), vehicle: Klucel (hydroxypropylcellulose) (HPC) 92 % of control | dose: 3.12 mg/kg/injection, schedule: Q01DX009 (ip), vehicle: Klucel (hydroxypropylcellulose) (HPC) 87 % of control | dose: 6.25 mg/kg/injection, schedule: Q01DX009 (ip), vehicle: Klucel (hydroxypropylcellulose) (HPC) 92 % of control and 93 % of control

O=C(O)c1cc([N+](=O)[O-])ccc1Nc1cccc2ccccc12
inactive: [2] 90 % of control | [4] 97 % of control

CC(=O)Nc1ccc(Cc2ccc(NC(C)=O)cc2)cc1
inactive: dose: 75.0 mg/kg/injection, schedule: Q01DX001 (ip), vehicle: Klucel (hydroxypropylcellulose) (HPC) 93 % of control | [5] 101 % of control | dose: 150.0 mg/kg/injection, schedule: Q01DX001 (ip), vehicle: Klucel (hydroxypropylcellulose) (HPC) 100 % of control | [6] 93 % of control | dose: 300.0 mg/kg/injection, schedule: Q01DX001 (ip), vehicle: Klucel (hydroxypropylcellulose) (HPC) 98 % of control | [7] 97 % of control

CC[S+](CC)CC
inactive: [2] 95 % of control | [4] 95 % of control

C/C=C/C[n+]1c(C)ccc2ccccc21
inactive: dose: 12.5 mg/kg/injection, schedule: Q01DX001 (ip), vehicle: saline 98 % of control | dose: 25.0 mg/kg/injection, schedule: Q01DX001 (ip), vehicle: saline 96 % of control | dose: 50.0 mg/kg/injection, schedule: Q01DX001 (ip), vehicle: saline 93 % of control

O=S(=O)(CCCl)c1ccccc1
inactive: [8] 103 % of control | [5] 92 % of control | [9] 97 % of control | [6] 92 % of control | [10] 94 % of control | [7] 97 % of control

Cc1cc(C)c(C(N)=O)c(N)n1
inactive: [8] 105 % of control | [9] 90 % of control | [10] 106 % of control

O=S1(=O)CC2(N3CCCC3)CCCCC21 (configuration not stated)
inactive: dose: 75.0 mg/kg/injection, schedule: Q01DX001 (ip), vehicle: saline 98 % of control | dose: 150.0 mg/kg/injection, schedule: Q01DX001 (ip), vehicle: saline 100 % of control | dose: 300.0 mg/kg/injection, schedule: Q01DX001 (ip), vehicle: saline 100 % of control

COC1=C(F)C(=O)C(OC)=C(F)C1=O
inactive: dose: 1.2 mg/kg/injection, schedule: Q01DX001 (ip), vehicle: alcohol 101 % of control | dose: 2.5 mg/kg/injection, schedule: Q01DX001 (ip), vehicle: alcohol 97 % of control | dose: 5.0 mg/kg/injection, schedule: Q01DX001 (ip), vehicle: alcohol 103 % of control

S=c1[nH][nH]c(=S)s1
inactive: dose: 12.5 mg/kg/injection, schedule: Q01DX009 (ip), vehicle: Klucel (hydroxypropylcellulose) (HPC) 92 % of control | dose: 25.0 mg/kg/injection, schedule: Q01DX009 (ip), vehicle: Klucel (hydroxypropylcellulose) (HPC) 95 % of control | dose: 50.0 mg/kg/injection, schedule: Q01DX009 (ip), vehicle: Klucel (hydroxypropylcellulose) (HPC) 90 % of control | [11] 97 % of control | [12] 101 % of control | [13] 97 % of control

CC(=O)OCC1CC2C=CC1C2 (configuration not stated)
inactive: [14] 98 % of control | [15] 102 % of control | [16] 104 % of control

c1ccc(SCN(CSc2ccccc2)c2ccccc2)cc1
inactive: [12] 106 % of control | dose: 200.0 mg/kg/injection, schedule: Q01DX009 (ip), vehicle: Klucel (hydroxypropylcellulose) (HPC) 101 % of control

O=S(=O)(O)O.[N-]=C(N)/N=C(\[NH-])N.[N-]=C(N)/N=C(\[NH-])N.[N-]=C(N)NC(=[N-])N.[Rh+3]
inactive: dose: 12.5 mg/kg/injection, schedule: Q04DX003 (ip), vehicle: saline 91 % of control | [17] 118 % of control | dose: 25.0 mg/kg/injection, schedule: Q04DX003 (ip), vehicle: saline 109 % of control | [11] 98 % of control | dose: 50.0 mg/kg/injection, schedule: Q04DX003 (ip), vehicle: saline 96 % of control

CC1(C)C2CCC(CCO)C1C2 (configuration not stated)
inactive: dose: 12.5 mg/kg/injection, schedule: Q04DX003 (ip), vehicle: saline with Tween-80 92 % of control | [17] 96 % of control | dose: 25.0 mg/kg/injection, schedule: Q04DX003 (ip), vehicle: saline with Tween-80 88 % of control | [11] 92 % of control | dose: 50.0 mg/kg/injection, schedule: Q04DX003 (ip), vehicle: saline with Tween-80 95 % of control | [13] 88 % of control | [5] 92 % of control

C=CCSC(C)CC (configuration not stated)
inactive: [18] 95 % of control | [1] 101 % of control | [5] 96 % of control | [3] 92 % of control | [6] 96 % of control

O=C1C=C(N2CC2)C(=O)C(N2CC2)=C1N1CC1
active: dose: 0.3 mg/kg/injection, schedule: Q01DX001 (ip), vehicle: saline 155 % of control
inactive: dose: 0.07 mg/kg/injection, schedule: Q01DX001 (ip), vehicle: saline 112 % of control | dose: 0.1 mg/kg/injection, schedule: Q01DX Z (ip), vehicle: saline 93 % of control | dose: 0.6 mg/kg/injection, schedule: Q01DX001 (ip), vehicle: saline 87 % of control | dose: 6.3 micrograms/kg/injection, schedule: Q01DX015 (ip), vehicle: saline 107 % of control | dose: 12.5 micrograms/kg/injection, schedule: Q01DX015 (ip), vehicle: saline 102 % of control | dose: 25.0 micrograms/kg/injection, schedule: Q01DX015 (ip), vehicle: saline 113 % of control | dose: 75.0 micrograms/kg/injection, schedule: Q01DX009 (ip), vehicle: saline 113 % of control

O=NN1CCCCCCC1C(=O)O (configuration not stated)
inactive: dose: 100.0 mg/kg/injection, schedule: Q01DX001 (ip), vehicle: saline 102 % of control | dose: 200.0 mg/kg/injection, schedule: Q01DX001 (ip), vehicle: saline 98 % of control | dose: 400.0 mg/kg/injection, schedule: Q01DX001 (ip), vehicle: saline 102 % of control

O=C1NC(=O)c2ccc(S)c3cccc1c23
inactive: [1] 94 % of control | [3] 90 % of control | [19] 97 % of control

CCOP(=[Se])(OCC)OCC
inactive: dose: 12.5 mg/kg/injection, schedule: Q01DX009 (ip), vehicle: saline with Tween-80 91 % of control | dose: 25.0 mg/kg/injection, schedule: Q01DX009 (ip), vehicle: saline with Tween-80 107 % of control | [18] 88 % of control

CCOC(=O)c1ccc(NC(=S)Nc2ccc(C(=O)OCC)cc2)cc1
inactive: [1] 95 % of control | [5] 89 % of control | [3] 93 % of control | [6] 87 % of control | [19] 95 % of control | [7] 94 % of control

O=C(O)/C=C/C(=O)Nc1cc(Cl)cc2c1-c1c(Cl)cc(Cl)cc1C2O (configuration not stated)
inactive: [8] 98 % of control | [9] 92 % of control | [10] 108 % of control

NC(=S)NNC(=O)/C=C/c1ccccc1
inactive: [20] 105 % of control | [21] 91 % of control | [22] 91 % of control

O=C(c1cccnc1)C1Cc2ccccc2C1=O (configuration not stated)
inactive: [20] 100 % of control | [21] 96 % of control | [22] 91 % of control

O=C1CCN(Cl)C(=O)N1Cl
inactive: dose: 5.0 mg/kg/injection, schedule: Q01DX001 (ip), vehicle: saline 93 % of control | dose: 10.0 mg/kg/injection, schedule: Q01DX001 (ip), vehicle: saline 95 % of control | dose: 20.0 mg/kg/injection, schedule: Q01DX001 (ip), vehicle: saline 97 % of control

CC(C)COC(=O)Cc1cccc2ccccc12
inactive: [14] 96 % of control | [15] 96 % of control | [16] 94 % of control
